± gives the expanded uncertainty stated by the source.
Details: 101.33 kPa, Crystal; for molar entropy: Small (less than 1 g) adiabatic calorimetry

O=P([O-])([O-])[O-].[La+3] [lanthanum orthophosphate]
Details	molar entropy [J/K/mol]
2 K	0.00041
4 K	0.00372
6 K	0.01262
8 K	0.0291 ± 0.031
10 K	0.0561 ± 0.031
12 K	0.09746 ± 0.032
14 K	0.1576 ± 0.033
16 K	0.2412 ± 0.035
18 K	0.3527 ± 0.037
20 K	0.4961 ± 0.039
25 K	1.015 ± 0.045
30 K	1.776 ± 0.16
35 K	2.783 ± 0.17
40 K	4.024 ± 0.18
45 K	5.479 ± 0.19
50 K	7.119 ± 0.2
60 K	10.84 ± 0.23
70 K	14.97 ± 0.26
80 K	19.34 ± 0.3
90 K	23.86 ± 0.44
100 K	28.43 ± 0.47
110 K	33.01 ± 0.5
120 K	37.56 ± 0.53
130 K	42.08 ± 0.55
140 K	46.55 ± 0.58
150 K	50.59 ± 0.6
160 K	55.29 ± 0.63
170 K	59.57 ± 0.66
180 K	63.77 ± 0.68
190 K	67.91 ± 0.71
200 K	71.98 ± 0.73
210 K	75.99 ± 0.76
220 K	79.93 ± 0.78
230 K	83.81 ± 0.8
240 K	87.62 ± 0.83
250 K	91.37 ± 0.85
260 K	95.06 ± 0.87
270 K	98.69 ± 0.89
280 K	102.3 ± 0.9
290 K	105.8 ± 0.9
300 K	109.2 ± 1
320 K	116 ± 1
340 K	122.5 ± 1
360 K	128.8 ± 1.1
373 K	132.9 ± 1.1
400 K	141 ± 1.1
450 K	155.1 ± 1.2
500 K	168.2 ± 1.3
550 K	180.3 ± 1.4
600 K	191.7 ± 1.5
650 K	202.4 ± 1.5
700 K	212.6 ± 1.6
750 K	222.1 ± 1.6
800 K	231.3 ± 1.7
850 K	240 ± 1.7
900 K	248.3 ± 1.8
950 K	256.3 ± 1.8
1000 K	263.9 ± 1.9
1050 K	271.3 ± 1.9
1100 K	278.5 ± 2
1150 K	285.4 ± 2
1200 K	292.1 ± 2.1
1250 K	298.6 ± 2.1
1300 K	305 ± 2.1
1350 K	311.1 ± 2.2
1400 K	317.1 ± 2.2
1450 K	323 ± 2.2
1500 K	328.7 ± 2.3
1550 K	334.3 ± 2.3
1600 K	339.8 ± 2.3

Details	mass density [kg/m3]
293 K, X-ray diffraction	5076 ± 6

— the NIST ThermoML archive (doi:10.1016/j.tca.2008.05.004)
